{"source": "patent US7071206B2", "about": "“Agents for treating neurodegenerative disorders” (Medivation, Inc., priority 1995, dated 2006)", "tested_on": "patients suffering from Alzheimer's disease", "test": "Clinical trial of dimebon: clinical observations of the mental state", "assay_type": "in vivo, human", "experimental": "The test was carried out under the direct supervision by two of the inventors, namely E. E. Bukatina and V. Grigorieva, in 14 patients who agreed to take part in the tests, 13 of whom lived in a boarding house for senile persons and one patient lived with their family.\nDimebon in the form of tablets (comprising 10 mg of dimebon, 30 mg of lactose, 5 mg of magnesium stearate was prescribed for oral administration in a dose of 0.02 g three to times a day. The patients living in the boarding house received dimebon for 58 days. A patient (observation 14) who was under outpatient observation continued taking the agent for a month after the completion of the tests.\nThe test results reflected the condition of the patients at the time of the examination. Any changes in the metal state observed in the interval between the tests and disappearing by the moment of examination according to the scale were described in the section “Clinical Observations”.\nThe pattern of the dynamics of the mental states of the patients during the treatment with dimebon registered in clinical observations is presented in Table 17."}
{"smiles": "Cc1ccc2c(c1)c1c(n2CCc2ccc(C)nc2)CCN(C)C1", "note": "[No. 10, 2,8-dimethyl-5-[2-(6-methyl-3-pyridyl)ethyl]-2,3,4,5-tetrahydro-1H-pyrido[4,3-b]indole]", "values": [{"measurement": "number of patients who became more active (cheerfulness and freshness)", "setting": "14 patients", "result": 4, "unit": "patients"}, {"measurement": "number of patients who complained of headaches much less frequently", "setting": "14 patients", "result": 4, "unit": "patients"}, {"measurement": "number of patients who slept better", "setting": "14 patients", "result": 2, "unit": "patients"}, {"measurement": "number of patients with a distinct antidepressive effect", "setting": "14 patients", "result": 8, "unit": "patients"}, {"measurement": "number of patients with a greater interest in what was happening around", "setting": "14 patients", "result": 8, "unit": "patients"}, {"measurement": "psychopatic-like and depressive manifestations, conclusion", "setting": "14 patients", "result": "definite positive effect"}, {"measurement": "psychopathic-like symptoms (lack of restraint, touchiness, conflict making, evil-mindedness or aggressiveness)", "setting": "all 7 patients who suffered from them, during the first 2 weeks of therapy", "result": "decreased significantly"}]}
